According to article PMC3923778 (PLoS Currents, 2014):
Entries after “also recorded” stand apart in the source; their conditions may differ.

Legend:
[1] = target: T1, NK3 receptor (Homo sapiens, UniProt P29371); assay: Cerep diversity panel screen at 10 µM; assay type: binding
T1 construct: Cerep (contract laboratory)
Experimental: (§1) Studies were conducted at Cerep (France)

[2] = target: T2, human choline transporter (Homo sapiens, UniProt Q9GZV3); assay: Cerep diversity panel screen at 10 µM; assay type: binding
T2 construct: Cerep (contract laboratory)
T2 sequence (Q9GZV3 whole entry): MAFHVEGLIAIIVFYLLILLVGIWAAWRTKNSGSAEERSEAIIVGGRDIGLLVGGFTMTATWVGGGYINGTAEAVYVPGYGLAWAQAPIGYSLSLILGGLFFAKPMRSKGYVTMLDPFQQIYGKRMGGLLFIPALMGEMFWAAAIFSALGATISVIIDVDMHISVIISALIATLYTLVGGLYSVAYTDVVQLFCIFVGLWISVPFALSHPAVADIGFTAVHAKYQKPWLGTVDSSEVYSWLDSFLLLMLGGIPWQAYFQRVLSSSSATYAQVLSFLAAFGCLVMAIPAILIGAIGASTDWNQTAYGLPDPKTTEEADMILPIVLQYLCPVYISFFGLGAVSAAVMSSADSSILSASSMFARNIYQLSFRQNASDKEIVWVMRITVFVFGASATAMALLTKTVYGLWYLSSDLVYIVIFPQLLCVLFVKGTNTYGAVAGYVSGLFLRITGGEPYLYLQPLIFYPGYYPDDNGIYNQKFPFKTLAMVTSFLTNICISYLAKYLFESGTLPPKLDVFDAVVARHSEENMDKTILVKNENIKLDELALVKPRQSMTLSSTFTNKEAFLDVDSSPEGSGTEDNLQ
Experimental: as §1

[3] = test system: site 2 of the Na2+-channel; assay: Cerep diversity panel screen at 10 µM; assay type: binding
Experimental: as §1

[4] = test system: α2-adrenergic receptor; assay: Cerep diversity panel screen at 10 µM; assay type: binding
Experimental: as §1

[5] = test system: R6/2 mice; assay: Acute and subchronic (2 weeks) tolerability evaluation in R6/2 mice; assay type: in vivo; settings: R6/2 mice starting at 6 weeks of age, all doses administered
Text: Prior to chronic dosing, we conducted an acute and subchronic (2 weeks) tolerability evaluation in R6/2 mice starting at 6 weeks of age (studies conducted at Psychogenics, USA; see Supplementary Report 1 for full details).

[6] = test system: R6/2 mice; assay: Lower dose behavioral efficacy study in R6/2 mice (Psychogenic); assay type: in vivo, mouse; settings: lower doses, 0.3 – 3 mg/kg
[7] = test system: R6/2 mice; assay: Open Field Test; assay type: in vivo, mouse; design: key to Open Field Total Distance: direction of significant change vs Vehicle-treated R6/2 mice / Open Field Center Distance: direction of significant change vs Vehicle-treated R6/2 mice: ▲: significant enhancement compared to Vehicle-treated R6/2 mice (One-way ANOVA, Dunnett’s post-hoc); ▼: significant impairment compared to Vehicle-treated R6/2 mice (One-way ANOVA, Dunnett’s post-hoc)
Experimental: Motor function testing including open field and rear climbing tests were commenced at 4 weeks of age and continued at weeks 6, 8 and 12, for grip strength test at age weeks 4 and 12 and for rotarod at age weeks 4, 6 and 8. Compound treatment was started at 4 weeks of age after the baseline behavioral tests.
Open field test was performed at age weeks 4, 6, 8 and 12. The mice were tested on Mondays at approximately 10-30 lux of red light. The mice were brought to the experimental room for at least 1 h acclimation to the experimental room conditions prior to testing. Activity chambers (Med Associates Inc., St Albans, VT; 27 x 27 x 20.3 cm) are equipped with IR beams. Mice were placed in the center of the chamber and their behavior was recorded for 30 min in 5-minute bins. Quantitative analysis was performed on the following five dependent measures: total locomotion, locomotion in the center of the open field, rearing rate in the center, total rearing frequency and velocity.
(§2) All values are presented as mean ± Standard Error of Mean (SEM), and differences are considered to be statistically significant at the p < 0.05 level. Statistical analysis was performed using StatsDirect statistical software. Differences between group means were analyzed by 1-way-ANOVA followed by Dunnett’s test (comparison to the control (=vehicle treated TG mice) group). The acquisition of the Cued two-choice swim test was analyzed using Fisher’s exact test.

[8] = test system: disease-relevant genes; assay: Taqman-qPCR of disease-relevant genes; assay type: in vivo, mouse; settings: chronic administration; 13 weeks of age; lower dose group study
Experimental: Total RNA was extracted with the mini-RNA kit accordingly to manufacturer instructions (Qiagen). Reverse transcription (RT) was performed using MMLV superscript reverse transcriptase (Invitrogen) and random hexamers (Operon) and all Taqman-qPCR reactions were performed using the Chromo4 Real-Time PCR Detector (BioRad) as described. Expression level of the gene-of-interest was normalised to the geometric mean of three endogenous housekeeping genes (Primer Design) as described. […]

[9] = test system: R6/2 mice; assay: Chronic oral dosing in the R6/2 mouse model, overall disease progression; assay type: in vivo; settings: chronic oral administration, 10 or 30 mg/kg BID p.o. from 4 weeks
Experimental: All animal experiments were carried out according to the National Institute of Health (NIH) guidelines for the care and use of laboratory animals, and approved by the National Laboratory Animal Board, Finland. 60 male and female R6/2 TG mice (R6/2J CAG 120 and 12 male and female wild-type littermate control mice were bred at National Animal Facility Center, Kuopio, Finland.
Mice were housed in groups of 4 and separated by sexes. In each cage, one wild-type mouse of the same sex, but different litter, was included in an attempt to provide normal social stimulation. Mice were allowed to acclimate to the experimental room for at least one hour prior to the beginning of any experiment. Mice were transported from the colony room to experimental rooms in their home cages. Experimentation was conducted in a blinded manner. Tail samples were taken at the end of the study for verification of genotypes and CAG sizes of individual mice.
as §2

[10] = Age Week 4, 10 mg/kg p.o., BID, ANOVA
[11] = Age Week 4, 30 mg/kg p.o., BID, ANOVA
[12] = Age Week 6, 10 mg/kg p.o., BID, ANOVA
[13] = Age Week 6, 30 mg/kg p.o., BID, ANOVA
[14] = Age Week 8, 10 mg/kg p.o., BID, ANOVA
[15] = Age Week 8, 30 mg/kg p.o., BID, ANOVA
[16] = Age Week 12, 10 mg/kg p.o., BID
[17] = Age Week 12, 10 mg/kg p.o., BID, ANOVA
[18] = Age Week 12, 30 mg/kg p.o., BID
[19] = Age Week 12, 30 mg/kg p.o., BID, ANOVA

T1 sequence (P29371 whole entry, species assumed): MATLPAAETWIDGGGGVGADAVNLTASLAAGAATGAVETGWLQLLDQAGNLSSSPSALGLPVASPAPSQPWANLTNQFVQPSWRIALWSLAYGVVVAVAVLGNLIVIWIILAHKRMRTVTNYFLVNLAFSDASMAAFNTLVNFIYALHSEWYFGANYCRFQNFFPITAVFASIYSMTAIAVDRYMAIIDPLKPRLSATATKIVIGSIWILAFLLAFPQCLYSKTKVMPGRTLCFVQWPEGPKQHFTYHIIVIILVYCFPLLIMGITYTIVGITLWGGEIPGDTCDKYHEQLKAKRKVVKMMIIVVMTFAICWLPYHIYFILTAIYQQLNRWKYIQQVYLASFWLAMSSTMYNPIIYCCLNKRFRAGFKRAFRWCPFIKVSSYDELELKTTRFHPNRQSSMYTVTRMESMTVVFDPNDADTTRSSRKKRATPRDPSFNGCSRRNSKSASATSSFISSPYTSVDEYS

CN1C(=O)c2nc(Cc3ccc(C(F)(F)F)cc3)[nH]c2N2C1=N[C@H]1CCC[C@H]12 [SCH-51866, (+)-cis-5,6a,7,8,9,9a-hexahydro-2-[4-[trifluro-methyl]phenylmethyl]-5-methyl-cylopent[4,5]imidazo [2,1-b]purin-4(3H)one]
inhibition at 10 µM [1]: 57%
inhibition at 10 µM [2]: 94%
inhibition [3]: 66%
inhibition [4]: 88%
tolerability [5]: well tolerated with no sign of adverse effects
effect on disease progression / endpoints (rotarod, grip strength, open field, survival) [6]: no improvement noted in any endpoint; also recorded: no effect in ameliorating disease progression
Open Field Average Velocity: p vs Vehicle-treated R6/2 mice [7, 10]: ANOVA: p=0.461
Open Field Center Distance: p vs Vehicle-treated R6/2 mice [7, 10]: ANOVA: p=0.701
Open Field Rearing Rate in Center: p vs Vehicle-treated R6/2 mice [7, 10]: ANOVA: p=0.341
Open Field Total Distance: p vs Vehicle-treated R6/2 mice [7, 10]: ANOVA: p=0.792
Open Field Total Rearing Frequency: p vs Vehicle-treated R6/2 mice [7, 10]: ANOVA: p=0.542
Open Field Average Velocity: p vs Vehicle-treated R6/2 mice [7, 11]: ANOVA: p=0.461
Open Field Center Distance: p vs Vehicle-treated R6/2 mice [7, 11]: ANOVA: p=0.701
Open Field Rearing Rate in Center: p vs Vehicle-treated R6/2 mice [7, 11]: ANOVA: p=0.341
Open Field Total Distance: p vs Vehicle-treated R6/2 mice [7, 11]: ANOVA: p=0.792
Open Field Total Rearing Frequency: p vs Vehicle-treated R6/2 mice [7, 11]: ANOVA: p=0.542
Open Field Average Velocity: p vs Vehicle-treated R6/2 mice [7, 12]: ANOVA: p=0.686
Open Field Center Distance: p vs Vehicle-treated R6/2 mice [7, 12]: ANOVA: p=0.305
Open Field Rearing Rate in Center: p vs Vehicle-treated R6/2 mice [7, 12]: ANOVA: p=0.594
Open Field Total Distance: p vs Vehicle-treated R6/2 mice [7, 12]: ANOVA: p=0.101
Open Field Total Rearing Frequency: p vs Vehicle-treated R6/2 mice [7, 12]: ANOVA: p=0.639
Open Field Average Velocity: p vs Vehicle-treated R6/2 mice [7, 13]: ANOVA: p=0.686
Open Field Center Distance: p vs Vehicle-treated R6/2 mice [7, 13]: ANOVA: p=0.305
Open Field Rearing Rate in Center: p vs Vehicle-treated R6/2 mice [7, 13]: ANOVA: p=0.594
Open Field Total Distance: p vs Vehicle-treated R6/2 mice [7, 13]: ANOVA: p=0.101
Open Field Total Rearing Frequency: p vs Vehicle-treated R6/2 mice [7, 13]: ANOVA: p=0.639
Open Field Average Velocity: p vs Vehicle-treated R6/2 mice [7, 14]: ANOVA: p=0.138
Open Field Center Distance: p vs Vehicle-treated R6/2 mice [7, 14]: ANOVA: p=0.693
Open Field Rearing Rate in Center: p vs Vehicle-treated R6/2 mice [7, 14]: ANOVA: p=0.519
Open Field Total Distance: p vs Vehicle-treated R6/2 mice [7, 14]: ANOVA: p=0.333
Open Field Total Rearing Frequency: p vs Vehicle-treated R6/2 mice [7, 14]: ANOVA: p=0.395
Open Field Average Velocity: p vs Vehicle-treated R6/2 mice [7, 15]: ANOVA: p=0.138
Open Field Center Distance: p vs Vehicle-treated R6/2 mice [7, 15]: ANOVA: p=0.693
Open Field Rearing Rate in Center: p vs Vehicle-treated R6/2 mice [7, 15]: ANOVA: p=0.519
Open Field Total Distance: p vs Vehicle-treated R6/2 mice [7, 15]: ANOVA: p=0.333
Open Field Total Rearing Frequency: p vs Vehicle-treated R6/2 mice [7, 15]: ANOVA: p=0.395
Open Field Center Distance: p vs Vehicle-treated R6/2 mice [7, 16]: p=0.112
Open Field Total Distance: p vs Vehicle-treated R6/2 mice [7, 16]: p=0.454
Open Field Average Velocity: p vs Vehicle-treated R6/2 mice [7, 17]: ANOVA: p=0.197
Open Field Rearing Rate in Center: p vs Vehicle-treated R6/2 mice [7, 17]: ANOVA: p=0.423
Open Field Total Rearing Frequency: p vs Vehicle-treated R6/2 mice [7, 17]: ANOVA: p=0.703
Open Field Center Distance: direction of significant change vs Vehicle-treated R6/2 mice [7, 18]: ▼
Open Field Center Distance: p vs Vehicle-treated R6/2 mice [7, 18]: 0.012
Open Field Total Distance: direction of significant change vs Vehicle-treated R6/2 mice [7, 18]: ▼
Open Field Total Distance: p vs Vehicle-treated R6/2 mice [7, 18]: 0.016
Open Field Average Velocity: p vs Vehicle-treated R6/2 mice [7, 19]: ANOVA: p=0.197
Open Field Rearing Rate in Center: p vs Vehicle-treated R6/2 mice [7, 19]: ANOVA: p=0.423
Open Field Total Rearing Frequency: p vs Vehicle-treated R6/2 mice [7, 19]: ANOVA: p=0.703
Open field total distance traveled, distance in center, total rear frequency, average velocity, effect in words ([7]; chronic administration in R6/2 mice): no improvement
performance in open field evaluation, effect in words ([7]; highest dose group, 12 weeks of age): modest but significant worsening of performance
expression of disease-relevant genes in striatum, cortex and cerebellum [8]: did not have a statistically significant effect; also recorded: no effects on the dysregulation of these genes
effect on R6/2 disease progression / disease-related phenotypes [9]: did not ameliorate disease progression; also recorded: did not modify any R6/2 disease-related phenotypes
